According to patent US20070157323A1, “In vivo odorant receptor systems and their uses” (priority 2003, published 2007):

What was measured:
[1] = test system: ab3A neuron; details: cited from earlier work; for strongest responses of the A neuron: sensilla expressing Or22a and Or22b
[2] = test system: Rhagoletis pomonella flies; details: Nojima et al.; cited from earlier work
[3] = test system: Oedaleus decorus asiaticus; details: both sexes; Chen et al.; cited from earlier work
[4] = test system: Angaracris barabensis; details: both sexes; Chen et al.; cited from earlier work
[5] = test system: V. pensylvanica; details: Davis et al.; MacDonald et al.; McGovern et al.; cited from earlier work
[6] = target: T1, AgOr1 (Anopheles gambiae, UniProt Q8WTE7); experiment: Single-unit electrophysiology of Drosophila ab3A neuron (Δhalo) expressing AgOr1; assay type: in vivo; details: liquid odors diluted 10^−4, solid odors 0.2 mg/ml in paraffin oil, 0.5 s pulse, FIG. 1a
T1 construct: expressed in transfected cells; host or cells: Transgenic Drosophila, ab3A olfactory receptor neuron lacking Or22a/Or22b (Δhalo), GAL4-UAS
T1 sequence (Q8WTE7 1-417): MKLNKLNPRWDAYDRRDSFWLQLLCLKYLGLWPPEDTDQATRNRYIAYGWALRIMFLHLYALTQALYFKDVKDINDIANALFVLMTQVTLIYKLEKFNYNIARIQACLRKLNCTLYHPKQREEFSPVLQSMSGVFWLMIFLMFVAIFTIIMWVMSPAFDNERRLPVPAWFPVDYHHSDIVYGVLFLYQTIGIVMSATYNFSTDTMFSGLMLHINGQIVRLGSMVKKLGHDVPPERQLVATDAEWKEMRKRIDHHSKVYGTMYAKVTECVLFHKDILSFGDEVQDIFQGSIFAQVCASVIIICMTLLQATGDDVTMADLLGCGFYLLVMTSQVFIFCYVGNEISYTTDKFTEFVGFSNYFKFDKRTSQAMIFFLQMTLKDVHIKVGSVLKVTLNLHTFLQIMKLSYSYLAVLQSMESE
T1 sequence (Q9VNB5 1-486 partner): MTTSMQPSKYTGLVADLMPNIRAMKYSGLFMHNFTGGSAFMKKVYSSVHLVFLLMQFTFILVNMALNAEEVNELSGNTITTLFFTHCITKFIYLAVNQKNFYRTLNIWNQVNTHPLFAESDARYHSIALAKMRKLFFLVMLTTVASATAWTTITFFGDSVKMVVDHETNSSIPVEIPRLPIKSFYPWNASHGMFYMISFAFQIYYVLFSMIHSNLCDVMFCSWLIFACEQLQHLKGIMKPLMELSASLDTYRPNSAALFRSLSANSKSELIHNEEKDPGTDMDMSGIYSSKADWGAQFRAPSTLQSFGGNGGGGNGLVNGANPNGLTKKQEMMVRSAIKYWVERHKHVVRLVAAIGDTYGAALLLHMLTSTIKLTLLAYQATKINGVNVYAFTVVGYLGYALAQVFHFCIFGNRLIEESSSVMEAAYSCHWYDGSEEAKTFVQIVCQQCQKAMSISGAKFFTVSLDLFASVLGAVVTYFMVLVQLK
Method: (§1) In summary, odorant receptors are introduced specifically into Δab3A using the GAL4/UAS system and Or22a-GAL4 is used to drive expression from a UAS-Or construct. The odorant response of the neuron (Δab3A:OrX) is assayed electrophysiologically.
(§2) To investigate the function of the A. gambiae odorant receptor genes AgOr1 and AgOr2 directly, these genes were expressed in the Drosophila olfactory receptor neuron that lacks odor response due to the deletion of its endogenous receptor genes, Or22a and Or22b using an Or22a promoter and the GAL4-UAS system.
(§3) AgOr1 and AgOr2 were expressed in the Δhalo background using the GAL4-UAS system. Specifically AgOr1 or AgOr2 was placed under the control of a UAS and expressed using the 22a-GAL4 driver so as to drive its expression in ab3A cells. […]
(§4) Action potentials of the ORNs in a sensillum were recorded by placing an electrode through the sensillum wall into contact with the lymph that bathes the dendrites. […] Recordings were analyzed offline in IGOR-Pro (WaveMetrics, Lake Oswego, Oreg.).
(§5) Odor stimuli were presented from Pasteur pipettes holding solutions of chemicals in paraffin oil on filter paper. […] Responses of the ab3A neurons were quantified by subtracting the number of impulses (i.e., spikes) in 500 ms of spontaneous activity from the number in the 500 ms after the onset of odor stimulation (FIG. 1).

[7] = target: T2, AgOr2 (Anopheles gambiae, UniProt Q8WTE6); experiment: Single-unit electrophysiology of Drosophila ab3A neuron (Δhalo) expressing AgOr2; assay type: in vivo; details: liquid odors diluted 10^−4, solid odors 0.2 mg/ml in paraffin oil, 0.5 s pulse, FIG. 1b
T2 construct: expressed in transfected cells; host or cells: Transgenic Drosophila, ab3A olfactory receptor neuron lacking Or22a/Or22b (Δhalo), GAL4-UAS
T2 sequence (Q8WTE6 1-378): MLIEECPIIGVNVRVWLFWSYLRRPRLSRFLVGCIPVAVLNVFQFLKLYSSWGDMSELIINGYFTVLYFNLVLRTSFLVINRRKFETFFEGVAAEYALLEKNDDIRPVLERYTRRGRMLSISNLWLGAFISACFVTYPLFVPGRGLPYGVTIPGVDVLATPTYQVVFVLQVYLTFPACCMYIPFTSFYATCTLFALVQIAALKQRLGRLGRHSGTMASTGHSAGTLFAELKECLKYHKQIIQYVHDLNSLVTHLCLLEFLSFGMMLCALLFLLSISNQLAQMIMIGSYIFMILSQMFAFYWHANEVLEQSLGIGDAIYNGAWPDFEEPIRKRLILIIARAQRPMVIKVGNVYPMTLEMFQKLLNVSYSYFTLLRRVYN
T2 sequence (Q9VNB5 1-486 partner): T1 sequence (Q9VNB5 1-486 partner)
Method: as §1, §2, §3, §4, §5

[8] = test system: Glossina morsitans morsitans; details: Vale et al., 1988; cited from earlier work
[9] = test system: generalist predator; details: volatiles released individually, Nicotiana attenuata; Kessler et al.; cited from earlier work
[10] = test system: B neuron; details: sensilla expressing Or22a and Or22b; cited from earlier work
[11] = test system: Apol PBP1a; details: 3H-labeled ligand; cited from earlier work
[12] = test system: Apol PBP3; details: 3H-labeled ligand; cited from earlier work
[13] = target: T3, Aper PBP2 (Antheraea pernyi, UniProt Q17078); details: cited from earlier work
T3 construct: from tissue; host or cells: Sensory hair homogenates of A. pernyi (study quoted from the literature)
T3 sequence (Q17078 23-164): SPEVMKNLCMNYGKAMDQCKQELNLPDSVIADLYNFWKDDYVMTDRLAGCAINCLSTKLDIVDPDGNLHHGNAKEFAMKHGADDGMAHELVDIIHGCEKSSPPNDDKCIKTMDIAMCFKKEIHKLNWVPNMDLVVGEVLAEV

[14] = test system: lepidopteran; details: Nicotiana attenuata; Kessler et al.; cited from earlier work
[15] = test system: Aper PBP1; details: cited from earlier work

For CCCCCOC(C)=O [pentyl acetate], the “strongest responses of the A neuron” value [1] is listed as “strongest responses”.

For CC(=O)CCC1=C(C)CCCC1(C)C [dihydro-beta-ionone], the EAD activity [2] is listed as “Consistent EAD activity”.

For CCC/C=C\CO [Z-hexen-2-ol-1], the EAG responses [3] is given as “Strong EAG responses” and the EAG responses [4] is given as “Strong EAG responses”.

For CC=CC=CCOC(=O)CC [2,4-hexadienyl propionate], the “attraction of V. pensylvanica” value [5] is listed as “attract”.

In the case of CC(=O)OCCC(C)C [isoamyl acetate], the EAD activity [2] is given as “Consistent EAD activity”.

In the case of CCCCCC(=O)OCCCC [butyl hexanoate], the EAD activity [2] is listed as “Consistent EAD activity”.

In the case of CCCCCCCCOC(=O)CCC [octyl butyrate], the “attraction of V. pensylvanica” value [5] is given as “attract”.

In the case of CC(C)CCO [3-methylbutan-1-ol], the EAD activity [2] is given as “Consistent EAD activity”.

In the case of CCCCCCO [1-hexanol], the EAG responses [3] is given as “Strong EAG responses” and the EAG responses [4] is given as “Strong EAG responses”.

For C=C/C=C(\C)CCC=C(C)C [4,8-dimethyl-1,3(E),7-nonatriene], the EAD activity [2] is listed as “Consistent EAD activity”.

In the case of Cc1ccc(O)cc1 [4-methylphenol], the “odor response of mutant flies expressing AgOr1” value [6] is listed as “strong response”, the “odor response conferred by AgOr2” value [7] is listed as “not” and the “effectiveness of traps for the tsetse fly” value [8] is listed as “increase the effectiveness of traps”.

In the case of CC/C=C\CCO [cis-3-hexen-1-ol], the “egg predation rates by a generalist predator” value (from here on “egg predation rates”) [9] is listed as “increased egg predation rates”.

For CCCCCCO [hexanol], the “strongest responses of the B neuron” value [10] is listed as “strongest responses”.

In the case of CCCC/C=C\CCC/C=C/CCCCC=O [ALD, (E,Z)-6,11-hexadecadienal], the “binding to Apol PBP1a” value [11] is given as “no binding”, the “binding to Apol PBP3” value [12] is given as “no binding” and the “binding affinity to Aper PBP2” value [13] is given as “showed binding affinity”.

In the case of CCOC(C)=O [ethyl acetate], the “strongest responses of the A neuron” value [1] is listed as “strongest responses” and the EAD activity [2] is listed as “Consistent EAD activity”.

For CCC/C=C/C=O [E-2-hexen-1-al], the EAG responses [3] is given as “Strong EAG responses” and the EAG responses [4] is given as “Strong EAG responses”.

In the case of CCCCCCCOC(=O)CCC [heptyl butyrate], the “attraction of V. pensylvanica” value [5] is listed as “attract”.

For CCCCCC(C)=O [heptanone], the “strongest responses of the B neuron” value [10] is listed as “strongest responses”.

In the case of CC/C=C\CCOC(C)=O [Z-hexen-3-yl acetate], the EAG responses [3] is listed as “Strong EAG responses” and the EAG responses [4] is listed as “Strong EAG responses”.

In the case of CCC/C=C/CO [E-2-hexen-1-ol], the EAG responses [3] is listed as “Strong EAG responses” and the EAG responses [4] is listed as “Strong EAG responses”.

In the case of CCCC(=O)OCC [ethyl butyrate], the “sensitivity of ab3A” value ([1]; in vivo) is given as “highly sensitive” and the “strongest responses of the A neuron” value [1] is given as “strongest responses”.

With Cc1ccccc1O [2-methylphenol] the “odor response conferred by AgOr2” value [7] was “strong response”.

For C=CC(C)(O)CCC=C(C)C (stereo not shown) [linalool], the “egg predation rates” value [9] is given as “increased egg predation rates” and the lepidopteran oviposition rates [14] is given as “decreased lepidopteran oviposition rates”.

In the case of CC=CC=CCOC(=O)C(C)C [2,4-hexadienyl isobutyrate], the “attraction of V. pensylvanica” value [5] is given as “attract”.

For C=CC(O)CCCCC (stereo not shown) [octenol], the “strongest responses of the B neuron” value [10] is listed as “strongest responses”.

For CC=CC=CCOC(=O)CCC [2,4-Hexadienyl butyrate], the “attraction of V. pensylvanica” value [5] is listed as “attract”.

For CCCCCCCO [1-heptanol], the EAG responses [3] is listed as “Strong EAG responses” and the EAG responses [4] is listed as “Strong EAG responses”.

In the case of CCCC/C=C\CCC/C=C/CCCCCOC(C)=O [AC1, (E,Z)-6,11-hexadecadienyl acetate], the “binding to Apol PBP1a” value [11] is given as “bound”, the “binding to Apol PBP3” value [12] is given as “bound” and the “binding affinity to Aper PBP1” value [15] is given as “showed binding affinity”.

In the case of CC(C)=CCC[C@]1(C)[C@H]2CC=C(C)[C@@H]1C2 (relative stereo) [cis-alpha-bergamotene], the “egg predation rates” value [9] is given as “increased egg predation rates”.

For CC/C=C/CCO [E-hexen-3-ol-1], the EAG responses [3] is listed as “Strong EAG responses” and the EAG responses [4] is listed as “Strong EAG responses”.
